Data taken from patent US12077503B2, “Substituted cyclic amides and their use as herbicides” (FMC CORPORATION, priority 2015, dated 2024).

Columns and labels:
Assay type in all cases: in vivo
[1] = test system: barnyardgrass (Echinochloa crus-galli); assay: Test G Pre-Emergence Protocol; conditions: Echinochloa crus-galli, pre-emergence, 312 h, evaluated after 13 days; for pest or weed control at 15.625 g/ha: 15.625 g ai/ha; for pest or weed control at 15.625 g/ha / pest or weed control at 250 g/ha: read-out: Barnyardgrass damage rating (100=total damage to plant; 0=no damage to plant); for pest or weed control at 62.5 g/ha: 62.5 g ai/ha, 100=total damage to plant, 0=no damage to plant, read-out: Barnyardgrass damage rating; for pest or weed control at 250 g/ha: 250 g ai/ha
Summary of the method: (§1)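 Seeds were sown in standard soil and kept one day in a glasshouse (24/16° C day/night, 14 h light, 65% humidity), then sprayed with compound in acetone/water (50:50) containing 0.5% Tween 20 at 15.625, 62.5 or 250 g/ha. Damage was scored after 13 days (0 = none, 100 = total).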

[2] = test system: corn (Zea mays); assay: Test G Pre-Emergence Protocol; conditions: Zea mays, pre-emergence, 312 h, evaluated after 13 days; for plant injury at 15.625 g/ha: 15.625 g ai/ha; for plant injury at 15.625 g/ha / plant injury at 250 g/ha: read-out: Corn damage rating (100=total damage to plant; 0=no damage to plant); for plant injury at 62.5 g/ha: 62.5 g ai/ha, 100=total damage to plant, 0=no damage to plant, read-out: Corn damage rating; for plant injury at 250 g/ha: 250 g ai/ha
Summary of the method: as §1

[3] = test system: giant foxtail (Setaria faberi); assay: Test G Pre-Emergence Protocol; conditions: Setaria faberi, pre-emergence, 312 h, evaluated after 13 days; for pest or weed control at 15.625 g/ha: 15.625 g ai/ha; for pest or weed control at 15.625 g/ha / pest or weed control at 250 g/ha: read-out: Foxtail, Giant damage rating (100=total damage to plant; 0=no damage to plant); for pest or weed control at 62.5 g/ha: 62.5 g ai/ha, 100=total damage to plant, 0=no damage to plant, read-out: Foxtail, Giant damage rating; for pest or weed control at 250 g/ha: 250 g ai/ha
Summary of the method: as §1

[4] = test system: ivy-leaved morning glory (Ipomoea hederacea); assay: Test G Pre-Emergence Protocol; conditions: Ipomoea, pre-emergence, 312 h, evaluated after 13 days; for pest or weed control at 15.625 g/ha: 15.625 g ai/ha; for pest or weed control at 15.625 g/ha / pest or weed control at 250 g/ha: read-out: Morningglory, Ivy-leaved damage rating (100=total damage to plant; 0=no damage to plant); for pest or weed control at 62.5 g/ha: 62.5 g ai/ha, 100=total damage to plant, 0=no damage to plant, read-out: Morningglory, Ivy-leaved damage rating; for pest or weed control at 250 g/ha: 250 g ai/ha
Summary of the method: as §1

[5] = test system: redroot pigweed (Amaranthus retroflexus); assay: Test G Pre-Emergence Protocol; conditions: Amaranthus retroflexus, pre-emergence, 312 h, evaluated after 13 days; for pest or weed control at 15.625 g/ha: 15.625 g ai/ha; for pest or weed control at 15.625 g/ha / pest or weed control at 250 g/ha: read-out: Pigweed, Redroot damage rating (100=total damage to plant; 0=no damage to plant); for pest or weed control at 62.5 g/ha: 62.5 g ai/ha, 100=total damage to plant, 0=no damage to plant, read-out: Pigweed, Redroot damage rating; for pest or weed control at 250 g/ha: 250 g ai/ha
Summary of the method: as §1

[6] = test system: velvetleaf (Abutilon theophrasti); assay: Test G Pre-Emergence Protocol; conditions: Abutilon theophrasti, pre-emergence, 312 h, evaluated after 13 days; for pest or weed control at 15.625 g/ha: 15.625 g ai/ha; for pest or weed control at 15.625 g/ha / pest or weed control at 250 g/ha: read-out: Velvetleaf damage rating (100=total damage to plant; 0=no damage to plant); for pest or weed control at 62.5 g/ha: 62.5 g ai/ha, 100=total damage to plant, 0=no damage to plant, read-out: Velvetleaf damage rating; for pest or weed control at 250 g/ha: 250 g ai/ha
Summary of the method: as §1

[7] = test system: barnyardgrass (Echinochloa crus-galli); assay: Test G Post-Emergence Protocol; conditions: Echinochloa crus-galli, post-emergence, 312 h, read-out: Barnyardgrass damage rating; for pest or weed control at 15.625 g/ha: 15.625 g ai/ha, evaluated after 13 days (100=total damage to plant; 0=no damage to plant); for pest or weed control at 62.5 g/ha: 62.5 g ai/ha; for pest or weed control at 62.5 g/ha / pest or weed control at 250 g/ha: evaluated after 13 days, 100=total damage to plant, 0=no damage to plant; for pest or weed control at 250 g/ha: 250 g ai/ha
Summary of the method: (§2)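 Sow in soil; grow 8 d (24/16 °C, 14 h light, 65% humidity); spray 15.625/62.5/250 g/ha in acetone:water 50:50 + 0.5% Tween 20; grow on, water twice daily; score damage 0–100 at 13 d.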

[8] = test system: corn (Zea mays); assay: Test G Post-Emergence Protocol; conditions: Zea mays, post-emergence, 312 h, read-out: Corn damage rating; for plant injury at 15.625 g/ha: 15.625 g ai/ha, evaluated after 13 days (100=total damage to plant; 0=no damage to plant); for plant injury at 62.5 g/ha: 62.5 g ai/ha; for plant injury at 62.5 g/ha / plant injury at 250 g/ha: evaluated after 13 days, 100=total damage to plant, 0=no damage to plant; for plant injury at 250 g/ha: 250 g ai/ha
Summary of the method: as §2

[9] = test system: giant foxtail (Setaria faberi); assay: Test G Post-Emergence Protocol; conditions: Setaria faberi, post-emergence, 312 h, read-out: Foxtail, Giant damage rating; for pest or weed control at 15.625 g/ha: 15.625 g ai/ha, evaluated after 13 days (100=total damage to plant; 0=no damage to plant); for pest or weed control at 62.5 g/ha: 62.5 g ai/ha; for pest or weed control at 62.5 g/ha / pest or weed control at 250 g/ha: evaluated after 13 days, 100=total damage to plant, 0=no damage to plant; for pest or weed control at 250 g/ha: 250 g ai/ha
Summary of the method: as §2

[10] = test system: ivy-leaved morning glory (Ipomoea hederacea); assay: Test G Post-Emergence Protocol; conditions: Ipomoea, post-emergence, 312 h, read-out: Morningglory, Ivy-leaved damage rating; for pest or weed control at 15.625 g/ha: 15.625 g ai/ha, evaluated after 13 days (100=total damage to plant; 0=no damage to plant); for pest or weed control at 62.5 g/ha: 62.5 g ai/ha; for pest or weed control at 62.5 g/ha / pest or weed control at 250 g/ha: evaluated after 13 days, 100=total damage to plant, 0=no damage to plant; for pest or weed control at 250 g/ha: 250 g ai/ha
Summary of the method: as §2

[11] = test system: redroot pigweed (Amaranthus retroflexus); assay: Test G Post-Emergence Protocol; conditions: Amaranthus retroflexus, post-emergence, 312 h, read-out: Pigweed, Redroot damage rating; for pest or weed control at 15.625 g/ha: 15.625 g ai/ha, evaluated after 13 days (100=total damage to plant; 0=no damage to plant); for pest or weed control at 62.5 g/ha: 62.5 g ai/ha; for pest or weed control at 62.5 g/ha / pest or weed control at 250 g/ha: evaluated after 13 days, 100=total damage to plant, 0=no damage to plant; for pest or weed control at 250 g/ha: 250 g ai/ha
Summary of the method: as §2

[12] = test system: velvetleaf (Abutilon theophrasti); assay: Test G Post-Emergence Protocol; conditions: Abutilon theophrasti, post-emergence, 312 h, read-out: Velvetleaf damage rating; for pest or weed control at 15.625 g/ha: 15.625 g ai/ha, evaluated after 13 days (100=total damage to plant; 0=no damage to plant); for pest or weed control at 62.5 g/ha: 62.5 g ai/ha; for pest or weed control at 62.5 g/ha / pest or weed control at 250 g/ha: evaluated after 13 days, 100=total damage to plant, 0=no damage to plant; for pest or weed control at 250 g/ha: 250 g ai/ha
Summary of the method: as §2

Structure (SMILES)	pest or weed control at 15.625 g/ha [1] [%]	pest or weed control at 62.5 g/ha [1] [%]	pest or weed control at 250 g/ha [1] [%]	plant injury at 15.625 g/ha [2] [%]	plant injury at 62.5 g/ha [2] [%]	plant injury at 250 g/ha [2] [%]	pest or weed control at 15.625 g/ha [3] [%]	pest or weed control at 62.5 g/ha [3] [%]	pest or weed control at 250 g/ha [3] [%]	pest or weed control at 15.625 g/ha [4] [%]	pest or weed control at 62.5 g/ha [4] [%]	pest or weed control at 250 g/ha [4] [%]	pest or weed control at 15.625 g/ha [5] [%]	pest or weed control at 62.5 g/ha [5] [%]	pest or weed control at 250 g/ha [5] [%]	pest or weed control at 15.625 g/ha [6] [%]	pest or weed control at 62.5 g/ha [6] [%]	pest or weed control at 250 g/ha [6] [%]	pest or weed control at 15.625 g/ha [7] [%]	pest or weed control at 62.5 g/ha [7] [%]	further results
CN1C[C@H](c2ccc(C(F)(F)F)c(C(F)(F)F)c2)[C@@H](C(=O)Nc2ccccc2S(C)(=O)=O)C1=O (racemic) [Compound 1799]	10	70	70	0	70	80	50	90	90	0	0	0	0	10	40	0	0	20	0	60	pest or weed control at 250 g/ha [7]: 70%; plant injury at 15.625 g/ha [8]: 10%; plant injury at 62.5 g/ha [8]: 60%; plant injury at 250 g/ha [8]: 70%; pest or weed control at 15.625 g/ha [9]: 20%; pest or weed control at 62.5 g/ha [9]: 70%; pest or weed control at 250 g/ha [9]: 70%; pest or weed control at 15.625 g/ha [10]: 10%; pest or weed control at 62.5 g/ha [10]: 60%; pest or weed control at 250 g/ha [10]: 30%; pest or weed control at 15.625 g/ha [11]: 0%; pest or weed control at 62.5 g/ha [11]: 60%; pest or weed control at 250 g/ha [11]: 70%; pest or weed control at 15.625 g/ha [12]: 0%; pest or weed control at 62.5 g/ha [12]: 20%; pest or weed control at 250 g/ha [12]: 10%
Cc1c(F)cccc1NC(=O)[C@@H]1C(=O)N(C)C[C@H]1c1cccc(C(C)(C)F)c1 (racemic) [Compound 1827]	0	80	90	0	0	50	40	90	90	0	0	20	0	0	0	0	0	10	0	70	pest or weed control at 250 g/ha [7]: 80%; plant injury at 15.625 g/ha [8]: 0%; plant injury at 62.5 g/ha [8]: 10%; plant injury at 250 g/ha [8]: 60%; pest or weed control at 15.625 g/ha [9]: 50%; pest or weed control at 62.5 g/ha [9]: 80%; pest or weed control at 250 g/ha [9]: 80%; pest or weed control at 15.625 g/ha [10]: 0%; pest or weed control at 62.5 g/ha [10]: 10%; pest or weed control at 250 g/ha [10]: 10%; pest or weed control at 15.625 g/ha [11]: 0%; pest or weed control at 62.5 g/ha [11]: 0%; pest or weed control at 250 g/ha [11]: 0%; pest or weed control at 15.625 g/ha [12]: 0%; pest or weed control at 62.5 g/ha [12]: 0%; pest or weed control at 250 g/ha [12]: 40%
